Data from PubChem BioAssay AID330 (DTP/NCI, 2004).
Several values for one entry are separate records, joined by “and”; a condition that tells them apart may be missing. Equal values may be shown once. Inconclusive results and toxic doses are left out.

Tested on: P388 leukemia ip, CD2F1 mice, survival T/C
Test: NCI In Vivo Anticancer Drug Screen. Data for tumor model P388 Leukemia (intraperitoneal) in CD2F1 (CDF1) mice
Settings: endpoint: median survival time, higher = longer survival
How it was run: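 Mice carrying the transplanted tumor received test compound or vehicle. Survival was recorded in each group, and the value is the treated-group measurement divided by that of the vehicle-treated control group.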

[1] = dose: 60.0 mg/kg/injection, schedule: Q01DX005 (ip), vehicle: saline with Tween-80
[2] = dose: 120.0 mg/kg/injection, schedule: Q01DX005 (ip), vehicle: saline with Tween-80
[3] = dose: 240.0 mg/kg/injection, schedule: Q01DX005 (ip), vehicle: saline with Tween-80
[4] = dose: 50.0 mg/kg/injection, schedule: Q01DX005 (ip), vehicle: Klucel (hydroxypropylcellulose) (HPC)
[5] = dose: 100.0 mg/kg/injection, schedule: Q01DX005 (ip), vehicle: Klucel (hydroxypropylcellulose) (HPC)
[6] = dose: 200.0 mg/kg/injection, schedule: Q01DX005 (ip), vehicle: Klucel (hydroxypropylcellulose) (HPC)
[7] = dose: 50.0 mg/kg/injection, schedule: Q01DX005 (ip), vehicle: saline with Tween-80
[8] = dose: 100.0 mg/kg/injection, schedule: Q01DX005 (ip), vehicle: saline with Tween-80
[9] = dose: 50.0 mg/kg/injection, schedule: Q01DX005 (ip), vehicle: saline
[10] = dose: 100.0 mg/kg/injection, schedule: Q01DX005 (ip), vehicle: saline
[11] = dose: 200.0 mg/kg/injection, schedule: Q01DX005 (ip), vehicle: saline
[12] = dose: 200.0 mg/kg/injection, schedule: Q01DX005 (ip), vehicle: saline with Tween-80
[13] = dose: 60.0 mg/kg/injection, schedule: Q01DX005 (ip), vehicle: Klucel (hydroxypropylcellulose) (HPC)
[14] = dose: 120.0 mg/kg/injection, schedule: Q01DX005 (ip), vehicle: Klucel (hydroxypropylcellulose) (HPC)
[15] = dose: 240.0 mg/kg/injection, schedule: Q01DX005 (ip), vehicle: Klucel (hydroxypropylcellulose) (HPC)
[16] = dose: 50.0 mg/kg/injection, schedule: Q01DX009 (ip), vehicle: Klucel (hydroxypropylcellulose) (HPC)
[17] = dose: 100.0 mg/kg/injection, schedule: Q01DX009 (ip), vehicle: Klucel (hydroxypropylcellulose) (HPC)
[18] = dose: 200.0 mg/kg/injection, schedule: Q01DX009 (ip), vehicle: Klucel (hydroxypropylcellulose) (HPC)

## COc1cc2cnc(-c3ccccc3)c(O)c2cc1OC
dose: 100.0 mg/kg/injection, schedule: Q04DX003 (ip), vehicle: suspension in saline
  T/C: 98 % of control
dose: 200.0 mg/kg/injection, schedule: Q04DX003 (ip), vehicle: suspension in saline
  T/C: 94 % of control
dose: 400.0 mg/kg/injection, schedule: Q04DX003 (ip), vehicle: suspension in saline
  T/C: 94 % of control

## O=C(O)C(CS)NSc1ccccc1[N+](=O)[O-] (stereo not drawn)
[1]
  T/C: 111 % of control
[2]
  T/C: 112 % of control
[3]
  T/C: 102 % of control

## CN1OC(CS(=O)(=O)c2ccccc2)(S(=O)(=O)c2ccccc2)CC1c1ccccc1 (stereo not drawn)
[4]
  T/C: 103 % of control
[5]
  T/C: 101 % of control
[6]
  T/C: 101 % of control

## CC(=O)C1=CN(C)c2ccccc2S1
[4]
  T/C: 103 % of control
[5]
  T/C: 99 % of control
[6]
  T/C: 108 % of control

## O=S1(=O)C(=C(c2ccccc2)c2ccccc2)S(=O)(=O)c2ccccc21
[1]
  T/C: 104 % of control
[2]
  T/C: 96 % of control
[3]
  T/C: 102 % of control

## CC(C)CN(CC(C)C)CN(CC(C)C)CC(C)C
[7]
  T/C: 100 % of control
[8]
  T/C: 119 % of control

## CNc1cn(C2OC(CO)C(O)C2O)c(=O)[nH]c1=O (stereo not drawn)
[9]
  T/C: 122 % of control
[10]
  T/C: 110 % of control
[11]
  T/C: 105 % of control

## CC(C)Sc1ncn[nH]1
[9]
  T/C: 99 % of control
[10]
  T/C: 100 % of control
[11]
  T/C: 102 % of control

## S=C(S)n1nc(-c2ccccc2)c(N=Nc2ccc(Cl)cc2Cl)c1-c1ccccc1
[7]
  T/C: 94 % of control
[8]
  T/C: 89 % of control
[12]
  T/C: 89 % of control

## COc1ccc(N(CN2C(=O)CCC2=O)CS(=O)(=O)c2ccc(Cl)cc2)cc1
[13]
  T/C: 97 % of control
[14]
  T/C: 90 % of control
[15]
  T/C: 100 % of control

## CCCCCCC(C)NCC(O)COc1cccc(C)c1 (stereo not drawn)
dose: 3.12 mg/kg/injection, schedule: Q01DX009 (ip), vehicle: Klucel (hydroxypropylcellulose) (HPC)
  T/C: 111 % of control
dose: 6.25 mg/kg/injection, schedule: Q01DX009 (ip), vehicle: Klucel (hydroxypropylcellulose) (HPC)
  T/C: 107 % of control
dose: 12.5 mg/kg/injection, schedule: Q01DX009 (ip), vehicle: Klucel (hydroxypropylcellulose) (HPC)
  T/C: 111 % of control

## Cn1nc(C(N)=O)c(=O)[nH]c1=O
[7]
  T/C: 104 % of control
[8]
  T/C: 97 % of control
[12]
  T/C: 103 % of control

## O=c1cc(-c2ccc(O)cc2)oc2cc(O)c(C3OC(CO)C(O)C(O)C3OC3OC(CO)C(O)C(O)C3O)c(O)c12 (stereo not drawn)
dose: 25.0 mg/kg/injection, schedule: Q01DX009 (ip), vehicle: Klucel (hydroxypropylcellulose) (HPC)
  T/C: 102 % of control
[16]
  T/C: 107 % of control
[17]
  T/C: 105 % of control
[18]
  T/C: 99 % of control

## COc1ccc2oc3cc(Cl)ccc3c(=O)c2c1
[1]
  T/C: 118 % of control
[2]
  T/C: 101 % of control
[3]
  T/C: 100 % of control

## O=[N+]([O-])c1ccc(O)c(CNCCCl)c1
dose: 25.0 mg/kg/injection, schedule: Q04DX002 (ip), vehicle: DMSO
  T/C: 95 % of control
dose: 50.0 mg/kg/injection, schedule: Q04DX002 (ip), vehicle: DMSO
  T/C: 98 % of control
dose: 100.0 mg/kg/injection, schedule: Q04DX002 (ip), vehicle: DMSO
  T/C: 89 % of control

## NS(=O)(=O)c1cccc(NC(=S)Nc2ccccc2)c1
dose: 6.25 mg/kg/injection, schedule: Q01DX009 (ip), vehicle: saline
  T/C: 103 % of control (2×) and 108 % of control
dose: 12.5 mg/kg/injection, schedule: Q01DX009 (ip), vehicle: saline
  T/C: 101 % of control and 106 % of control
dose: 25.0 mg/kg/injection, schedule: Q01DX009 (ip), vehicle: saline
  T/C: 99 % of control and 109 % of control and 94 % of control
dose: 100.0 mg/kg/injection, schedule: Q01DX009 (ip), vehicle: saline
  T/C: 99 % of control and 92 % of control
dose: 200.0 mg/kg/injection, schedule: Q01DX009 (ip), vehicle: saline
  T/C: 100 % of control and 110 % of control

## O=C1OC(c2ccccc2)=N/C1=C/c1cccn(-c2ccccc2)c1=S
[4]
  T/C: 94 % of control
[5]
  T/C: 87 % of control
[6]
  T/C: 86 % of control

## Nc1nnc2cc(Br)ccc2n1
[16]
  T/C: 102 % of control
[17]
  T/C: 99 % of control
[18]
  T/C: 100 % of control

## CCN(CCO)CCNc1ccc(C)c2sc3cc(OC)ccc3c(=O)c12
[7]
  T/C: 102 % of control and 103 % of control and 107 % of control
[8]
  T/C: 106 % of control and 112 % of control and 117 % of control
[12]
  T/C: 103 % of control and 119 % of control
dose: 400.0 mg/kg/injection, schedule: Q01DX005 (ip), vehicle: saline with Tween-80
  T/C: 115 % of control

## O=[N+]([O-])c1ccccc1N/N=C\c1cccc2c(/C=N/Nc3ccccc3[N+](=O)[O-])c(Cl)n(-c3ccccc3)c12
dose: 200.0 mg/kg/injection, schedule: Q01DX001 (ip), vehicle: Klucel (hydroxypropylcellulose) (HPC)
  T/C: 88 % of control

## Nc1nc(SCc2ccccn2)c2[nH]cnc2n1
dose: 66.0 mg/kg/injection, schedule: Q04DX003 (ip), vehicle: Klucel (hydroxypropylcellulose) (HPC)
  T/C: 122 % of control

## CCOC(=O)Nc1ccc2c(c1[N+](=O)[O-])c1cc([N+](=O)[O-])cc([N+](=O)[O-])c1n2CC
[7]
  T/C: 98 % of control
[8]
  T/C: 90 % of control
[12]
  T/C: 86 % of control

## COc1cccc(C=O)c1OCCSC
dose: 25.0 mg/kg/injection, schedule: Q01DX005 (ip), vehicle: saline with Tween-80
  T/C: 99 % of control
[7]
  T/C: 103 % of control
[8]
  T/C: 108 % of control

## COC(=O)C1(CC(=O)c2ccc(Cl)cc2)NC(=S)NC(=O)C1C#N (stereo not drawn)
[1]
  T/C: 99 % of control
[2]
  T/C: 98 % of control
[3]
  T/C: 106 % of control

## O/N=C1\CN2CCC1CC2
[9]
  T/C: 110 % of control
[10]
  T/C: 105 % of control

## CCc1c2c(cc3c1[nH]c1ccccc13)C(=O)NC2=O
dose: 25.0 mg/kg/injection, schedule: Q01DX005 (ip), vehicle: Klucel (hydroxypropylcellulose) (HPC)
  T/C: 99 % of control
[4]
  T/C: 90 % of control and 92 % of control
[5]
  T/C: 97 % of control
[6]
  T/C: 94 % of control

## O=C(c1ccccc1C(=O)N1CCCO1)N1CCCO1
[13]
  T/C: 93 % of control
[14]
  T/C: 100 % of control
[15]
  T/C: 100 % of control

## CCCCCCCCCCCCC(C(=O)O)C(C)C(=O)O (stereo not drawn)
dose: 0.25 mg/kg/injection, schedule: Q01DX009 (ip), vehicle: saline with Tween-80
  T/C: 96 % of control
dose: 0.5 mg/kg/injection, schedule: Q01DX009 (ip), vehicle: saline with Tween-80
  T/C: 102 % of control
dose: 1.0 mg/kg/injection, schedule: Q01DX009 (ip), vehicle: saline with Tween-80
  T/C: 104 % of control

## CN(Cc1cccc2ccccc12)Cc1cccc2ccccc12
[7]
  T/C: 86 % of control
[8]
  T/C: 89 % of control

## CCOC(=O)C1Sc2c(c(=O)n(C)c3ccccc23)C1=O (stereo not drawn)
[4]
  T/C: 101 % of control and 107 % of control and 110 % of control
[5]
  T/C: 99 % of control and 105 % of control and 108 % of control
[6]
  T/C: 108 % of control and 112 % of control and 123 % of control

## CN(C)P1P(N(C)C)P(N(C)C)P1N(C)C (stereo not drawn)
[1]
  T/C: 97 % of control
[2]
  T/C: 97 % of control
[3]
  T/C: 95 % of control

## C[Si](C)(OC(=O)N(CCCl)CCCl)O[Si](C)(C)OC(=O)N(CCCl)CCCl
dose: 6.25 mg/kg/injection, schedule: Q01DX009 (ip), vehicle: saline with Tween-80
  T/C: 108 % of control
dose: 12.5 mg/kg/injection, schedule: Q01DX009 (ip), vehicle: saline with Tween-80
  T/C: 124 % of control
dose: 25.0 mg/kg/injection, schedule: Q01DX009 (ip), vehicle: saline with Tween-80
  T/C: 165 % of control
dose: 50.0 mg/kg/injection, schedule: Q01DX009 (ip), vehicle: saline with Tween-80
  T/C: 115 % of control

## CC(C)=NNC1=NC(CC(C)C)P(=O)(NCCCCCCNP2(=O)SC(NN=C(C)C)=NC2CC(C)C)S1 (stereo not drawn)
[13]
  T/C: 97 % of control
[14]
  T/C: 103 % of control
[15]
  T/C: 95 % of control
